Assay results taken from ChEMBL document CHEMBL5729236, “CIS-morpholinone and other compounds as MDM2 inhibitors for the treatment of cancer” (2022).

Each molecule was assayed against E3 ubiquitin-protein ligase Mdm2 (Homo sapiens, UniProt Q00987) (assay: HTRF2 Assay: As the potencies of the HDM2 inhibitors increased, an improved HTRF assay (HTRF2 assay) was developed. All assay conditions remained the same as described above, with the exception of the following changes in reagent concentrations: 0.2 nM GST-hMDM2 (1-188), 0.5 nM biotinylated-p53 (1-83), 0.18 nM SA-XLent, and 100 mM KF.).
Sequence of E3 ubiquitin-protein ligase Mdm2 (Q00987 whole entry): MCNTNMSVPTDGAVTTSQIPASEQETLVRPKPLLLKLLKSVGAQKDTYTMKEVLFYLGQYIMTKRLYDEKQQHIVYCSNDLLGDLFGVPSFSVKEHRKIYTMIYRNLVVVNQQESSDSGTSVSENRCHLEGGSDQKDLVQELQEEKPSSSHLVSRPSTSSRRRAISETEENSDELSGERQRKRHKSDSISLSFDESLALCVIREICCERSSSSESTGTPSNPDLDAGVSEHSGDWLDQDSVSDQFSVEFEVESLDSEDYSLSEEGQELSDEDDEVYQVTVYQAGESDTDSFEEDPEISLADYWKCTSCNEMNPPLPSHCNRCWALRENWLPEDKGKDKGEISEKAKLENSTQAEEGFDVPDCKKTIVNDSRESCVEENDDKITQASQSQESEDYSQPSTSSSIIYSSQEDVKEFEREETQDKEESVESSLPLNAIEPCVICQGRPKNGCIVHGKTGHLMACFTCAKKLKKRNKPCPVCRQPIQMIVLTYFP

In order of rising IC50:
1. CCC[C@H](C(=O)N1CC(C(=O)O)C1)N1C(=O)[C@H](Cc2ccc(F)cc2)O[C@@H](c2ccc(Cl)cc2)[C@H]1c1ccc(Cl)cc1 (mixture of isomers)  524 nM
2. CCC[C@H](C(=O)O)N1C(=O)CO[C@@H](c2ccc(Cl)cc2)[C@H]1c1cc2ccccc2[nH]1 (mixture of isomers)  1290 nM
3. O=C1[C@H](CCCO)O[C@@H](c2cccc(Cl)c2)[C@@H](c2ccc(Cl)cc2)N1CC1CC1 (mixture of isomers)  7230 nM
